Test results taken from PubChem BioAssay (NCI).
Where “and” joins values, the source holds several entries; their conditions need not be identical. Identical values can stand only once.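 Results reflect a 48-hour exposure of cells in 96-well plates to compound at five concentrations. Here, GI50 denotes the concentration required for 50% inhibition of growth. TGI marks complete inhibition of growth.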

Legend:
Assay in all cases: NCI tumour cell line growth inhibition, 48 h
HL-60(TB) leukemia = test system: HL-60(TB) leukemia
MDA-MB-231 breast = test system: MDA-MB-231 breast
NCI-H460 lung = test system: NCI-H460 lung
HS 578T breast = test system: HS 578T breast
UACC-62 melanoma = test system: UACC-62 melanoma
LOX IMVI melanoma = test system: LOX IMVI melanoma
SF-539 CNS = test system: SF-539 CNS
KM12 colon = test system: KM12 colon
HCC-2998 colon = test system: HCC-2998 colon
MCF7 breast = test system: MCF7 breast
U251 CNS = test system: U251 CNS
UO-31 renal = test system: UO-31 renal
SK-OV-3 ovarian = test system: SK-OV-3 ovarian
NCI/ADR-RES ovarian = test system: NCI/ADR-RES ovarian
HOP-92 NSCLC = test system: HOP-92 NSCLC
IGROV1 ovarian = test system: IGROV1 ovarian
SN12C renal = test system: SN12C renal
SF-268 CNS = test system: SF-268 CNS
SNB-75 CNS = test system: SNB-75 CNS
UACC-257 melanoma = test system: UACC-257 melanoma
HCT-116 colon = test system: HCT-116 colon
T-47D breast = test system: T-47D breast
RXF 393 renal = test system: RXF 393 renal
HOP-62 NSCLC = test system: HOP-62 NSCLC
SF-295 CNS = test system: SF-295 CNS
OVCAR-8 ovarian = test system: OVCAR-8 ovarian
COLO 205 colon = test system: COLO 205 colon
TK-10 renal = test system: TK-10 renal
SR leukemia = test system: SR leukemia
MDA-MB-435 = test system: MDA-MB-435
HCT-15 colon = test system: HCT-15 colon
M14 melanoma = test system: M14 melanoma
SNB-19 CNS = test system: SNB-19 CNS
SK-MEL-5 melanoma = test system: SK-MEL-5 melanoma
786-0 renal = test system: 786-0 renal
NCI-H23 lung = test system: NCI-H23 lung
MALME-3M melanoma = test system: MALME-3M melanoma
EKVX NSCLC = test system: EKVX NSCLC
CAKI-1 renal = test system: CAKI-1 renal
NCI-H226 lung = test system: NCI-H226 lung
A498 renal = test system: A498 renal
SW-620 colon = test system: SW-620 colon
BT-549 breast = test system: BT-549 breast
NCI-H522 lung = test system: NCI-H522 lung
RPMI-8226 leukemia = test system: RPMI-8226 leukemia
PC-3 prostate = test system: PC-3 prostate
OVCAR-5 ovarian = test system: OVCAR-5 ovarian
HT29 colon = test system: HT29 colon
ACHN renal = test system: ACHN renal
CCRF-CEM leukemia = test system: CCRF-CEM leukemia
SK-MEL-2 melanoma = test system: SK-MEL-2 melanoma
OVCAR-3 ovarian = test system: OVCAR-3 ovarian
OVCAR-4 ovarian = test system: OVCAR-4 ovarian
DU-145 prostate = test system: DU-145 prostate
MOLT-4 leukemia = test system: MOLT-4 leukemia
K-562 leukemia = test system: K-562 leukemia
A549 NSCLC = test system: A549 NSCLC
SK-MEL-28 melanoma = test system: SK-MEL-28 melanoma

SMILES: C[C@]12CC[C@H](OC3OC(O)C(O)C(O)C3O)C=C1CCC1C2CC[C@]2(C)[C@@H](c3ccc(=O)oc3)CC[C@]12O (stereo not given in full)
- GI50 (HL-60(TB) leukemia): 2.27 nM
- TGI (HL-60(TB) leukemia): 5.12 nM
- GI50 (MDA-MB-231 breast): 19.4 nM and 15.6 nM
- TGI (MDA-MB-231 breast): 100 nM and 60.2 nM
- GI50 (NCI-H460 lung): 2.42 nM and 5 nM
- TGI (NCI-H460 lung): 6.33 nM and 5.12 nM
- GI50 (HS 578T breast): 2.24 nM
- TGI (HS 578T breast): 50.6 nM
- GI50 (UACC-62 melanoma): 6.26 nM and 7.83 nM
- TGI (UACC-62 melanoma): 21.4 nM and 17.6 nM
- GI50 (LOX IMVI melanoma): 3.33 nM and 5 nM
- TGI (LOX IMVI melanoma): 12 nM and 7.7 nM
- GI50 (SF-539 CNS): 2.62 nM and 5 nM
- TGI (SF-539 CNS): 6.21 nM and 5.68 nM
- GI50 (KM12 colon): 4.87 nM and 5 nM
- TGI (KM12 colon): 25.8 nM and 26.6 nM
- GI50 (HCC-2998 colon): 4.67 nM and 5 nM
- TGI (HCC-2998 colon): 25.2 nM and 16.5 nM
- GI50 (MCF7 breast): 3.42 nM and 5 nM
- TGI (MCF7 breast): 65.4 nM and 14.4 nM
- GI50 (U251 CNS): 3.82 nM and 5 nM
- TGI (U251 CNS): 14.1 nM and 9.03 nM
- GI50 (UO-31 renal): 4.64 nM and 5 nM
- TGI (UO-31 renal): 16.8 nM and 8.11 nM
- GI50 (SK-OV-3 ovarian): 3.65 nM and 5 nM
- TGI (SK-OV-3 ovarian): 12 nM and 6.59 nM
- GI50 (NCI/ADR-RES ovarian): 2.64 nM and 5 nM
- TGI (NCI/ADR-RES ovarian): 7.55 nM and 6.47 nM
- GI50 (HOP-92 NSCLC): 3.94 nM and 7.24 nM
- TGI (HOP-92 NSCLC): 34.2 nM and 29.2 nM
- GI50 (IGROV1 ovarian): 4.64 nM and 5 nM
- GI50 (SN12C renal): 3.04 nM and 5 nM
- TGI (SN12C renal): 17 nM and 9.65 nM
- GI50 (SF-268 CNS): 3.73 nM and 5 nM
- TGI (SF-268 CNS): 12.8 nM and 6.07 nM
- GI50 (SNB-75 CNS): 3.21 nM and 5 nM
- TGI (SNB-75 CNS): 15.7 nM and 6.16 nM
- GI50 (UACC-257 melanoma): 10.6 nM and 5.17 nM
- TGI (UACC-257 melanoma): 24.2 nM and 11.5 nM
- GI50 (HCT-116 colon): 3.62 nM and 5 nM
- TGI (HCT-116 colon): 11.9 nM and 6.71 nM
- GI50 (T-47D breast): 4.04 nM and 5 nM
- TGI (T-47D breast): 19.8 nM and 16.6 nM
- GI50 (RXF 393 renal): 1.79 nM
- TGI (RXF 393 renal): 3.9 nM
- GI50 (HOP-62 NSCLC): 1.78 nM
- TGI (HOP-62 NSCLC): 3.28 nM
- GI50 (SF-295 CNS): 3.16 nM and 5 nM
- TGI (SF-295 CNS): 80.9 nM and 13 nM
- GI50 (OVCAR-8 ovarian): 3.67 nM and 5 nM
- TGI (OVCAR-8 ovarian): 16.8 nM and 7.2 nM
- GI50 (COLO 205 colon): 15.3 nM and 7.93 nM
- TGI (COLO 205 colon): 35.8 nM and 17.1 nM
- GI50 (TK-10 renal): 5.08 nM
- TGI (TK-10 renal): 42.2 nM
- GI50 (SR leukemia): 2.21 nM
- TGI (SR leukemia): 6.19 nM
- GI50 (MDA-MB-435): 4.03 nM and 5.78 nM
- TGI (MDA-MB-435): 21.2 nM and 19.2 nM
- GI50 (HCT-15 colon): 4.65 nM and 5 nM
- TGI (HCT-15 colon): 21.8 nM and 15.5 nM
- GI50 (M14 melanoma): 14.8 nM and 9.18 nM
- TGI (M14 melanoma): 29.9 nM and 19.9 nM
- GI50 (SNB-19 CNS): 6.88 nM and 5 nM
- TGI (SNB-19 CNS): 50.6 nM and 28.7 nM
- GI50 (SK-MEL-5 melanoma): 1.96 nM and 5 nM
- TGI (SK-MEL-5 melanoma): 4.28 nM and 6.32 nM
- GI50 (786-0 renal): 2.59 nM and 5 nM
- TGI (786-0 renal): 7 nM and 5.73 nM
- GI50 (NCI-H23 lung): 2.93 nM
- TGI (NCI-H23 lung): 11.4 nM
- GI50 (MALME-3M melanoma): 3.28 nM and 5 nM
- TGI (MALME-3M melanoma): 9.89 nM and 11.8 nM
- GI50 (EKVX NSCLC): 2.86 nM and 5 nM
- TGI (EKVX NSCLC): 9.07 nM and 5.58 nM
- GI50 (CAKI-1 renal): 3.57 nM and 5 nM
- TGI (CAKI-1 renal): 24.8 nM and 17.3 nM
- GI50 (NCI-H226 lung): 2.62 nM and 5.27 nM
- TGI (NCI-H226 lung): 8.62 nM and 11.3 nM
- GI50 (A498 renal): 3.45 nM and 5 nM
- TGI (A498 renal): 48.3 nM and 23.7 nM
- GI50 (SW-620 colon): 4.45 nM and 5 nM
- TGI (SW-620 colon): 25.4 nM and 15.4 nM
- GI50 (BT-549 breast): 3.59 nM and 5 nM
- TGI (BT-549 breast): 11.8 nM and 6.59 nM
- GI50 (NCI-H522 lung): 2.86 nM
- TGI (NCI-H522 lung): 11.4 nM
- GI50 (RPMI-8226 leukemia): 4.39 nM
- TGI (RPMI-8226 leukemia): 74.8 nM
- GI50 (PC-3 prostate): 3.84 nM
- TGI (PC-3 prostate): 22.1 nM
- GI50 (OVCAR-5 ovarian): 8.01 nM and 5 nM
- TGI (OVCAR-5 ovarian): 25.2 nM and 11.9 nM
- GI50 (HT29 colon): 4.52 nM and 5 nM
- TGI (HT29 colon): 17.6 nM and 9.16 nM
- GI50 (ACHN renal): 3.49 nM and 5 nM
- TGI (ACHN renal): 11.9 nM and 5.78 nM
- GI50 (CCRF-CEM leukemia): 5 nM
- TGI (CCRF-CEM leukemia): 50 µM
- GI50 (SK-MEL-2 melanoma): 3.53 nM and 7.62 nM
- TGI (SK-MEL-2 melanoma): 10.3 nM and 17.7 nM
- GI50 (OVCAR-3 ovarian): 3.8 nM and 5 nM
- TGI (OVCAR-3 ovarian): 12.1 nM and 6.38 nM
- GI50 (OVCAR-4 ovarian): 2.98 nM
- TGI (OVCAR-4 ovarian): 16.7 nM
- GI50 (DU-145 prostate): 2.77 nM
- TGI (DU-145 prostate): 6.98 nM
- GI50 (MOLT-4 leukemia): 2.34 nM
- TGI (MOLT-4 leukemia): 5.3 nM
- GI50 (K-562 leukemia): 4.06 nM
- TGI (K-562 leukemia): 18.1 nM
- GI50 (A549 NSCLC): 1.78 nM
- TGI (A549 NSCLC): 3.58 nM
- GI50 (SK-MEL-28 melanoma): 5.85 nM and 6.06 nM
- TGI (SK-MEL-28 melanoma): 20 nM and 13.8 nM
